In PubChem BioAssay (NCI) one finds TGI and GI50 data, which are given here for 16 compounds.

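Interpolation was linear, between the two tested concentrations surrounding the appropriate level; five concentrations were tested over 48 hours in 96-well plates. Here, GI50 denotes the concentration required for 50% inhibition of growth. TGI denotes the concentration required for complete inhibition of growth.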 A value given as a limit tells only on which side of the number the result lay.

Holding throughout (assay): NCI tumour cell line growth inhibition, 48 h
Experiment [1] concerns 786-0 renal.
For experiment [2], the system named is EKVX NSCLC.
In experiment [3] the test system is HCT-116 colon.
Experiment [4] deals with HOP-62 NSCLC.
Experiment [5] has as its system HOP-92 NSCLC.
Experiment [6] has as its system HT29 colon.
For experiment [7], the system named is K-562 leukemia.
In experiment [8] the test system is MDA-MB-435.
For experiment [9], the system named is MDA-N.
Experiment [10] deals with OVCAR-8 ovarian.
The subject of experiment [11] is SK-MEL-2 melanoma.
For experiment [12], the system named is SK-OV-3 ovarian.
Experiment [13] relates to SNB-75 CNS.
Experiment [14] relates to SW-620 colon.
In experiment [15] the test system is U251 CNS.
Experiment [16] deals with UACC-62 melanoma.
The subject of experiment [17] is UO-31 renal.

Turning to `O=C(O)c1ccccc1/C=N/NC1=NCCCCN1`, the TGI in experiment [1], in experiment [2], in [3], in experiment [4], in [5] and in experiment [6] was greater than 100 µM in each case. Besides, the TGI in experiment [7], in experiment [8], in experiment [9], in [10], in [11] and in experiment [12] was greater than 100 µM throughout. Also, the TGI in experiment [13], in experiment [14], in experiment [15], in experiment [16] and in [17] was greater than 100 µM each time.
On to `COc1cc2c(cc1O)[C@@H]1Cc3c(cc(OC)c(OC)c3Oc3cc4c(cc3OC)CCN(C)[C@@H]4Cc3ccc(O)cc3)[C@H](C2)N1C`, for which the TGI in [1], in experiment [2], in [3], in [4], in experiment [5] and in experiment [6] was greater than 100 µM each time. In addition, the TGI was 45.8 µM in experiment [7]; 40.8 µM in [8]; 38.3 µM in experiment [9]; greater than 100 µM in experiment [10]; 53.3 µM in experiment [11]; greater than 100 µM in [12]. For the same compound, the TGI in [13] is greater than 80 µM; in experiment [14], greater than 100 µM; in experiment [15], greater than 100 µM; in [16], greater than 100 µM; in experiment [17], greater than 100 µM.
Consider `S=c1sc2nc(Cl)nc(Cl)c2s1`, for which the TGI in [1] worked out at 12.9 µM; in experiment [2], 31.8 µM; in experiment [3] it was 26 µM; in experiment [4] it was 36.9 µM; in experiment [5] it was 17.4 µM; in [6], 23.5 µM. Moreover, the TGI turned out to be 28.1 µM in experiment [7]; 22.4 µM in [8]; 24.8 µM in experiment [9]; 29.8 µM in experiment [10]; 23.8 µM in experiment [11]; 31.6 µM in [12]. The TGI in [13] is 34.8 µM; in experiment [14], 21.1 µM; in [15] it was 21.3 µM; in [16], 27.1 µM; in [17] it was 25.1 µM.
For the compound `CCOC(=O)/C=C1\c2ccccc2C(=O)N1CC(=O)OCC`, the TGI in experiment [1], in experiment [2], in experiment [3], in [4], in [5] and in experiment [7] was greater than 100 µM each time. For the same compound, the TGI in experiment [8], in experiment [9], in [10], in experiment [11], in experiment [12] and in [13] was greater than 100 µM in each case. Besides, the TGI in experiment [14], in experiment [15], in [16] and in experiment [17] was greater than 100 µM each time.
Consider `COc1cc(/C=C/c2cc(/C=C/c3ccc(O)c(OC)c3)oc(=O)c2)ccc1O`, for which the TGI in experiment [1] was 34.9 µM; in [2] it was greater than 36.2 µM; in [3], greater than 65.8 µM; in [4], 27.2 µM; in [5], 32.6 µM; in [6], greater than 22.6 µM. The TGI in experiment [7] was greater than 28 µM; in [8] it was 22.5 µM; in experiment [9], greater than 100 µM; in [10], greater than 100 µM; in [11], greater than 65.9 µM; in experiment [12] it was greater than 65.2 µM. Also, the TGI in [13] is 4.61 µM; in experiment [14], greater than 24.5 µM; in experiment [15] it was greater than 51.8 µM; in experiment [16] it was 18.5 µM; in experiment [17] it was greater than 100 µM.
As to `C=C1C(=O)O[C@H]2[C@H]1CC(=O)/C(C)=C/CC[C@@]1(C)O[C@@H]21`, the TGI was determined as 1.53 µM in experiment [1]; 24.8 µM in experiment [2]; 2.51 µM in [3]; 22 µM in experiment [4]; 1.65 µM in experiment [5]; 4.53 µM in [6]. Besides, the TGI in experiment [7] was 1.68 µM; in experiment [8], 5.43 µM; in experiment [9], 1.27 µM; in experiment [10], 7.47 µM; in experiment [11] it was 8.47 µM; in experiment [12], 25.9 µM. The TGI was 31.6 µM in experiment [13]; 0.768 µM in experiment [14]; 13.6 µM in [15]; 2.76 µM in experiment [16]; 2.29 µM in [17]. Further, the GI50 in experiment [2] is 6.06 µM; in [7], 0.368 µM.
Regarding `N#CCCN(CCN(C(=O)Nc1ccccc1)c1ccccc1)C(=O)Nc1ccccc1`, the TGI in experiment [1], in experiment [2], in [3], in experiment [4], in experiment [5] and in experiment [6] was greater than 100 µM throughout. Also, the TGI in [7] was greater than 92.1 µM; in experiment [8], greater than 100 µM; in experiment [9], greater than 100 µM; in experiment [10] it was greater than 100 µM; in [11] it was greater than 100 µM; in [12] it was greater than 100 µM. The TGI in experiment [13], in experiment [14], in experiment [15], in [16] and in experiment [17] was greater than 100 µM each time.
`Cc1ccc(/C=C/C(=N/NC(=O)N/N=C(/C=C/c2ccc(C)cc2)C(C)(C)CN2CCCCC2)C(C)(C)CN2CCCCC2)cc1`: the TGI came to 2.68 µM in [1]; 6.69 µM in experiment [2]; 2.64 µM in [3]; 3.08 µM in experiment [4]; 3.44 µM in experiment [5]; 2.16 µM in [6]. Further, the TGI turned out to be 1.68 µM in [7]; 2.76 µM in experiment [8]; 2.88 µM in experiment [9]; 2.88 µM in [10]; 3.44 µM in [11]; 3.32 µM in [12]. The TGI was found to be 3.08 µM in experiment [13]; 3.35 µM in experiment [14]; 2.82 µM in experiment [15]; 4.02 µM in experiment [16]; 2.28 µM in experiment [17].
Regarding `C=C1CN(Cc2ccccc2)[C@@H]2CCCCC[C@H](C#N)[C@H]12`, the TGI is greater than 100 µM in experiment [1]; greater than 100 µM in experiment [2]; greater than 100 µM in experiment [3]; greater than 100 µM in [4]; greater than 93 µM in experiment [5]; greater than 100 µM in [6]. The TGI in experiment [7], in experiment [8], in experiment [9], in experiment [10], in [11] and in experiment [12] was greater than 100 µM in each case. Also, the TGI in experiment [13], in [14], in experiment [15], in experiment [16] and in experiment [17] was greater than 100 µM each time.
Regarding `C[C@]12[C@@H]3CC[C@H]1[C@@H](OC(=O)Nc1cc([N+](=O)[O-])cc([N+](=O)[O-])c1)C(=O)N2CC3`, the TGI in experiment [1], in experiment [2], in experiment [3], in experiment [4], in experiment [5] and in experiment [6] was greater than 100 µM throughout. Besides, the TGI in experiment [7], in experiment [8], in [9], in experiment [10], in experiment [11] and in experiment [12] was greater than 100 µM in each case. Also, the TGI in [13], in experiment [14], in experiment [15], in experiment [16] and in experiment [17] was greater than 100 µM throughout.
Take `Cc1ccc(S(=O)(=O)NC(=O)Nc2ccc(S(N)(=O)=O)cc2S(N)(=O)=O)cc1`: the TGI in experiment [1], in experiment [2], in experiment [3], in [4], in experiment [5] and in [6] was greater than 100 µM each time. Also, the TGI in experiment [7], in [8], in [9], in [10], in experiment [11] and in experiment [12] was greater than 100 µM each time. Besides, the TGI in [13], in [14], in [15], in experiment [16] and in [17] was greater than 100 µM each time.
Take `COc1ccc(C(=O)/C=C/c2ccc(OCC(=O)N3CCN(c4ccccc4)CC3)cc2)cc1`: the TGI in [1] was greater than 77.3 µM; in [2], greater than 90.4 µM; in experiment [3], greater than 100 µM; in experiment [4], greater than 79.6 µM; in experiment [5], 51.3 µM; in experiment [6], greater than 100 µM. For the same compound, the TGI in experiment [7] was greater than 100 µM; in experiment [8], greater than 100 µM; in [9] it was greater than 100 µM; in [10] it was greater than 100 µM; in [11] it was greater than 100 µM; in experiment [12], 66 µM. The TGI in [13] is 62.5 µM; in experiment [14], greater than 100 µM; in experiment [15], greater than 83.5 µM; in experiment [16] it was greater than 100 µM; in [17], greater than 94.7 µM.
Turning to `CC#CCCN(CC#N)Cc1ccccc1`, the TGI in [1], in experiment [2], in experiment [3], in experiment [4], in [5] and in experiment [6] was greater than 100 µM in each case. Besides, the TGI in experiment [7], in experiment [8], in experiment [9], in [10], in experiment [11] and in [12] was greater than 100 µM in each case. In addition, the TGI is greater than 100 µM in experiment [13], greater than 100 µM in experiment [15], 32.9 µM in [16] and greater than 100 µM in experiment [17].
`O=C(O)CCCOc1cc(-c2ccccc2F)nc2cc3c(cc12)OCO3`: the TGI in [1] was greater than 100 µM; in experiment [2], greater than 100 µM; in experiment [3], greater than 100 µM; in experiment [4], greater than 100 µM; in experiment [5], 95.6 µM; in [6], greater than 100 µM. The TGI in experiment [8] was greater than 100 µM; in [9] it was 4.45 µM; in [10] it was greater than 100 µM; in experiment [11], greater than 100 µM; in experiment [12] it was greater than 100 µM; in experiment [13], greater than 100 µM. In addition, the TGI in experiment [14], in [15] and in [16] was greater than 100 µM each time. Further, the GI50 in experiment [3] was 3.99 µM.
In the case of `C/C=C/C(=O)N1C(=O)OC[C@@H]1c1ccccc1`, the TGI in experiment [1] was 35 µM; in [2], 35 µM; in [3], 38.1 µM; in experiment [4], 41.1 µM; in experiment [5] it was 37.2 µM; in experiment [6] it was 33.7 µM. Also, the TGI in experiment [7] was found to be 56 µM; in experiment [8], 70 µM; in [9], 43.8 µM; in [10] it was 38.5 µM; in experiment [11], 36.9 µM; in experiment [12] it was 33.3 µM. Also, the TGI turned out to be 27.1 µM in experiment [13], 54.6 µM in [14], 48.5 µM in experiment [15] and 35.2 µM in experiment [17].
For the compound `COc1ccc(/C=C2\N=C(NN)N=C2Cl)cc1`, the TGI in experiment [1], in [2], in experiment [3], in [4], in experiment [5] and in [6] was greater than 100 µM throughout. Also, the TGI in experiment [7], in [8], in experiment [9], in experiment [10], in experiment [11] and in experiment [12] was greater than 100 µM each time. Besides, the TGI in experiment [13], in experiment [14], in experiment [15] and in experiment [17] was greater than 100 µM throughout.
